Assay results reported in ChEMBL document CHEMBL6083176, “Fluorescence theranostic PROTACs for real-time visualization of ERα degradation” (Eur J Med Chem, 2024).
The source made the active and inactive calls. No cut-off for these calls is given here. Peptide text beside a SMILES is read from it. * marks the point of attachment. Cbz = O=C(OCc1ccccc1)*

Experiments:
[1] = target: T1, Estrogen receptor (Homo sapiens) (UniProt P03372); assay: Binding affinity to ERalpha (unknown origin) assessed as relative binding affinity incubated for 2 hrs in presence of coumestrol by fluorescence polarization based competitive binding assay relative to estradiol
T1 sequence (whole entry): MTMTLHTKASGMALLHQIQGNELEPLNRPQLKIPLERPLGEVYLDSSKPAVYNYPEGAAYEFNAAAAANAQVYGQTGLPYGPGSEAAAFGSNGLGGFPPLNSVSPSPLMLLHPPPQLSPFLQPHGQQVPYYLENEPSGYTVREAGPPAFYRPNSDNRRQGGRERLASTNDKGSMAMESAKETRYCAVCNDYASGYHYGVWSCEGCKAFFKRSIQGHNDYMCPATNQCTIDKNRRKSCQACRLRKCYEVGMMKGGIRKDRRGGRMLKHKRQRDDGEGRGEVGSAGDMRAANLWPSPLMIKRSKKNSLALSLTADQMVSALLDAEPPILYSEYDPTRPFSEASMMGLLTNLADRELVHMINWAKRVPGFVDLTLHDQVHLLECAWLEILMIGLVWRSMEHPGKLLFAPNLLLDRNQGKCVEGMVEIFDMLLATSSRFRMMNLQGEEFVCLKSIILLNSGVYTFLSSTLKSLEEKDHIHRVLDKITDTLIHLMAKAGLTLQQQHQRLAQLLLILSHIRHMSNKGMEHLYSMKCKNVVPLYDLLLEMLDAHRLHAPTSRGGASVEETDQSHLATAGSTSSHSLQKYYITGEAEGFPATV

[2] = target: Estrogen receptor beta (Homo sapiens) (UniProt Q92731); assay: Binding affinity to ERbeta (unknown origin) assessed as relative binding affinity incubated for 2 hrs in presence of coumestrol by fluorescence polarization based competitive binding assay relative to estradiol
Chain of Estrogen receptor beta (Homo sapiens) (Q92731 whole entry): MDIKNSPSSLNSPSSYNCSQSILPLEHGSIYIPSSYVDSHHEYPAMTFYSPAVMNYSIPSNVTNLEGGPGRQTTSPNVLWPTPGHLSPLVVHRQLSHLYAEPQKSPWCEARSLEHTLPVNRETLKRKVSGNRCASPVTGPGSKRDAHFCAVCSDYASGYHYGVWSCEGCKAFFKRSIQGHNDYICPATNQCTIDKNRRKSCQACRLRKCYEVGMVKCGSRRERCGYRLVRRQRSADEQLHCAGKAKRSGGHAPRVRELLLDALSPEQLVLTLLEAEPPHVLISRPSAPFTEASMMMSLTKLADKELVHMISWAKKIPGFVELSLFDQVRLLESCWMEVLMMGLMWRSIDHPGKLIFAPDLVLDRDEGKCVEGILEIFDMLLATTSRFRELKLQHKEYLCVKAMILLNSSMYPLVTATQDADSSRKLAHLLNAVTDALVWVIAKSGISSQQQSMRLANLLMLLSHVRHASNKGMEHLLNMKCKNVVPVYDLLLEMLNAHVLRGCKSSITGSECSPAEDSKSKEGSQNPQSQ

[3] = Selectivity ratio of RBA for ERalpha (unknown origin) to RBA for ERbeta (unknown origin)
MCF7 [4] = assay: Antiproliferative activity against human MCF7 cells assessed as reduction in cell viability incubated for 48 hrs by MTT assay; format: functional, cell-based; settings: MCF7, 48 h
DU-145 = assay: Antiproliferative activity against human DU-145 cells assessed as reduction in cell viability incubated for 48 hrs by MTT assay; format: functional, cell-based; settings: DU-145, 48 h
[5] = target: T2, von Hippel-Lindau disease tumor suppressor/Estrogen receptor (Homo sapiens, UniProt P03372+P40337); assay: PROTAC activity at VHL/ERalpha in human MCF7 cells assessed as induction of ERalpha degradation at 5 uM by Western blot analysis; format: cell-based
Target sequence in this assay (P40337 whole entry, looked up, one chain of several): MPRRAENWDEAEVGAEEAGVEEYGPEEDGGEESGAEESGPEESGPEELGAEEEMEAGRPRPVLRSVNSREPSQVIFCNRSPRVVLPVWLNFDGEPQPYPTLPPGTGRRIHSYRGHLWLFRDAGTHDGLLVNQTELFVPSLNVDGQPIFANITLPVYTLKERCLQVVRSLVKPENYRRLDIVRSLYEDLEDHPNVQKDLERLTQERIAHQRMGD

[6] = target: T2, von Hippel-Lindau disease tumor suppressor/Estrogen receptor; assay: PROTAC activity at VHL/ERalpha in human MCF7 cells assessed as induction of ERalpha degradation incubated for 24 hrs by Western blot analysis; format: cell-based
Target sequence in this assay (P40337 whole entry, one chain of several): as the sequence (P40337 whole entry, looked up, one chain of several) above

[7] = target: T2, von Hippel-Lindau disease tumor suppressor/Estrogen receptor; assay: PROTAC activity at VHL/ERalpha in human MCF7 cells assessed as induction of ERalpha degradation at 0.05 to 0.5 uM incubated for 24 hrs in presence of 4-OHT by Western blot analysis; format: cell-based; settings: dose 0.05-0.5 µM
Target sequence in this assay (P40337 whole entry, looked up, one chain of several): as above

[8] = target: T2, von Hippel-Lindau disease tumor suppressor/Estrogen receptor; assay: PROTAC activity at VHL/ERalpha in human MCF7 cells assessed as induction of ERalpha degradation at 0.5 uM incubated for 24 hrs in presence of VHL ligand by Western blot analysis; format: cell-based
Target sequence in this assay (P40337 whole entry, looked up, one chain of several): as above

[9] = target: T2, von Hippel-Lindau disease tumor suppressor/Estrogen receptor; assay: PROTAC activity at VHL/ERalpha in human MCF7 cells assessed as induction of ERalpha degradation at 0.5 uM incubated for 24 hrs in presence of MG132 by Western blot analysis; format: cell-based
Target sequence in this assay (P40337 whole entry, looked up, one chain of several): as above

[10] = Chemical reactivity of compound to […] assessed as change in fluorescence response; format: physicochemical
[11] = Chemical reactivity of compound to KCl assessed as change in fluorescence response; format: physicochemical
[12] = Chemical reactivity of compound to MgCl2 assessed as change in fluorescence response; format: physicochemical
[13] = Chemical reactivity of compound to CaCl2 assessed as change in fluorescence response; format: physicochemical
[14] = Chemical reactivity of compound to NaNO2 assessed as change in fluorescence response; format: physicochemical
[15] = Chemical reactivity of compound to NaHCO3 assessed as change in fluorescence response; format: physicochemical
[16] = GSH reactivity of compound assessed as change in fluorescence response; format: physicochemical
[17] = Chemical reactivity of compound to lysine assessed as change in fluorescence response; format: physicochemical
[18] = Chemical reactivity of compound to glycine assessed as change in fluorescence response; format: physicochemical
[19] = Chemical reactivity of compound to methionine assessed as change in fluorescence response; format: physicochemical
[20] = Photostability of the compound in DMSO/PBS solution assessed as decrease in fluorescence intensity at 466 nm excitation with Hamamatsu LC8 lightning cure (300 W) light for 2 hrs by fluorescence based analysis relative to initial value; format: physicochemical; set-up: dose or concentration left out as unconfirmed; settings: read-out: Activity
[21] = Drug uptake in ER positive human MCF7 cells assessed as increase in red fluorescence at 10 uM incubated for 30 mins in glucose-depleted DMEM medium by confocal laser scanning microscopic analysis; format: ADME, cell-based; settings: mcf7, 0.5 h
[22] = Drug uptake in ER positive human MCF7 cells assessed as increase in red fluorescence at 10 uM incubated for 30 mins in glucose-depleted DMEM medium in presence of estradiol by confocal laser scanning microscopic analysis; format: ADME, cell-based; settings: mcf7, 0.5 h
[23] = target: T2, von Hippel-Lindau disease tumor suppressor/Estrogen receptor; assay: PROTAC activity at VHL/ERalpha in human MCF7 cells assessed as induction of ERalpha degradation by measuring decrease in green fluorescence at 10 uM measured after 24 hrs by anti-ERalpha based immunofluorescence analysis; format: cell-based
Target sequence in this assay (P40337 whole entry, looked up, one chain of several): as above

[24] = Drug uptake in human MCF7 cells assessed as increase in red fluorescence at 10 uM measured after 24 hrs by confocal laser scanning microscopic analysis; format: ADME, cell-based; settings: mcf7, 24 h
MCF7 [25] = assay: Effect on ERalpha expression in human MCF7 cells at 5 uM incubated for 24 hrs by Western blot analysis; format: functional, cell-based

SMILES | RBA [1] | RBA [2] | Selectivity ratio [3] | IC50 (MCF7 [4]) | IC50 (DU-145) | Activity [5] | further results
Cc1ncsc1-c1ccc([C@H](C)NC(=O)[C@@H]2C[C@@H](O)CN2C(=O)[C@@H](NC(=O)CCCCCCCCCOc2cc(O)ccc2/C=C/C2=CC(=C(C#N)C#N)c3cc(O)ccc3O2)C(C)(C)C)cc1 | 7.99% | 3.94% | 2.03 | 51 nM | > 100 µM | Active | DC50 [6]: 120 nM; Activity [7]: inactive; Activity [8]: inactive; Activity [9]: Not active; Mg132 Partly Blocked The Degradation; Activity [10]: Not_active; Activity [11]: Not_active; Activity [12]: Not_active; Activity [13]: Not_active; Activity [14]: Not_active; Activity [15]: Not_active; Drug metabolism [16]: metabolite_notdetected; Activity [17]: Not_active; Activity [18]: Not_active; Activity [19]: Not_active; degraded at 2 h [20]: < 5%; Drug uptake [21]: Active; Drug uptake [22]: Not_active; Activity [23]: Active; Nearly Complete Disappearance Of Fluorescence Observed; Drug uptake [24]: Active
CC(C)C[C@@H](C=O)NC(=O)[C@H](CC(C)C)NC(=O)[C@H](CC(C)C)NC(=O)OCc1ccccc1 (Cbz-Leu-Leu-Leu-aldehyde) | – | – | – | – | – | – | Activity (MCF7 [25]): inactive
C[C@]12CC[C@@H]3c4ccc(O)cc4C[C@@H](CCCCCCCCC[S+]([O-])CCCC(F)(F)C(F)(F)F)[C@H]3[C@@H]1CC[C@@H]2O (stereo not given in full) [FULVESTRANT] | – | – | – | 3 nM | – | – | –
Cc1ncsc1-c1ccc([C@H](C)NC(=O)[C@@H]2C[C@@H](O)CN2C(=O)[C@@H](NC(=O)CCCCCCCCCCCOc2cc(O)ccc2/C=C/C2=CC(=C(C#N)C#N)c3cc(O)ccc3O2)C(C)(C)C)cc1 | 2.11% | 1.4% | 1.51 | 33500 nM | > 100 µM | Active | –

Continued, in another order:

RBA [1] | RBA [2] | Selectivity ratio [3] | IC50 (MCF7 [4]) | IC50 (DU-145) | Activity [5] | SMILES | further results
2.48% | 0.65% | 3.79 | 110 nM | > 100 µM | Active | Cc1ncsc1-c1ccc([C@H](C)NC(=O)[C@@H]2C[C@@H](O)CN2C(=O)[C@@H](NC(=O)CCCCCCCOc2cc(O)ccc2/C=C/C2=CC(=C(C#N)C#N)c3cc(O)ccc3O2)C(C)(C)C)cc1 | –
3.69% | 2.48% | 1.48 | > 100000 nM | > 100 µM | Active | Cc1ncsc1-c1ccc([C@H](C)NC(=O)[C@@H]2C[C@@H](O)CN2C(=O)[C@@H](NC(=O)CCCCCOc2cc(O)ccc2/C=C/C2=CC(=C(C#N)C#N)c3cc(O)ccc3O2)C(C)(C)C)cc1 | –
